# Laboratory results from patent US20090275514A1, “USE OF CALMODULIN KINASE II INHIBITORS TO TREAT OR PREVENT HEART MUSCLE INFLAMMATION” (priority 2008, published 2009).
# Key:
# [1] = test system: Cfb expression in neonatal cardiomyocytes; experiment: TNFα-induced Cfb expression in cultured neonatal cardiomyocytes (qRT-PCR); assay type: cell-based, mouse; details: RNA after 12 h
# Description: (§1) All animal experiments were done in compliance with the “Guiding Principles for the Care and Use of Laboratory Animals.” Mouse neonatal cardiac myocytes were isolated from 1 to 3-day-old newborn B6D2/F1 mice according to an established protocol. Hearts were dissected and incubated with F-10 nutrient medium, containing 140 μg/ml of collagenase type-2 (Sigma) and 440 μg/ml pancreatin (Sigma) until cells were dissociated. The cells were then washed, resuspended in 1:1 mix of Dulbecco's minimal Eagle's medium (DMEM) and F10 nutrient mix with 5% each of equine and bovine calf serum. These cells were pre-plated in tissue culture dishes for 1 h to allow for attachment of nonmyocytes. The resulting non-adherent myocytes were plated on fibronectin-coated (Sigma) tissue culture dishes. […]
# (§2) Total RNA was isolated from mouse heart, liver, isolated adult cardiomyocytes, or cultured neonatal cardiomyocytes using Qiagen RNA isolation kit. RNA samples were quantified by determining A260 in capillary cuvettes (Gene Machine, Pharmacia). […]
# (§3) For SYBR Green quantitative real-time PCR, 1 μl of reverse transcription reaction was mixed with 10 pmoles each specific primer and 12.5 μl SYBR PCR Master Mix (BioRad). […] The threshold cycle (CT) was determined by the icycler software, and quantification of relative mRNA levels was performed by ΔΔCT method.
# [2] = test system: Cfb expression in neonatal cardiomyocytes; experiment: LPS-induced Cfb expression in cultured neonatal cardiomyocytes (qRT-PCR); assay type: cell-based, mouse
# Description: as §1, §2, §3
# [3] = test system: gene expression in infarcted hearts; experiment: cDNA microarray of infarcted hearts (CaMKII-regulated genes); assay type: in vivo, mouse; details: three weeks after MI; compared to infarcted AC3-C hearts; 8,600 genes on array
# Description: (§4) Mouse hearts were infarcted by opening the thoracic cavity and placing a ligature on the left descending coronary artery, as described (3). Both male and female mice were infracted, and three-week post-infarction, RNA was isolated from cardiac tissue using RNeasy kit (Qiagen). Hearts were harvested one week after MI surgery for protein studies. Gene expression profiles of pooled RNA from at least five hearts of each gender were determined from cDNA microarrays containing 8600 elements derived from clones isolated from normalized cDNA libraries or purchased from ResGen (Invitrogen) as described previously (52). Differential expression values were calculated as the ratio of the median of background-subtracted fluorescent intensity of the experimental RNA to the median of background-subtracted fluorescent intensity of the control RNA. […] For the analyses, the results from both genders were compiled.
# [4] = test system: CFB protein in infarcted hearts; experiment: CFB protein in hearts after myocardial infarction (immunoblotting); assay type: in vivo, mouse; details: one week following MI; transgenic hearts compared to WT
# Description: as §4
# Tissue samples were homogenized in modified RIPA buffer (50 mM Hepes, pH 7.5; 150 mM NaCl; 5 mM EDTA; 1% v/v NP-40 and 0.5% w/v deoxycholate) containing mixture of protease and phosphatase inhibitors. […] Protein bands were detected using ECL reagent (Lumi-Light, Roche), and loading was routinely monitored by Coomassie staining of the blots after antibody probing. For quantification, QuantityOne software (BioRad) was used.
# [5] = neonatal cardiomyocytes from transgenic mice, compared to WT cells
Compound,"induction of Cfb by TNFα in cardiomyocytes expressing the peptide [1, 5]","induction of Cfb mRNA by LPS in cardiomyocytes expressing the peptide [2, 5]",number of genes with reduced expression in infarcted hearts [3],CFB protein in heart after MI [4],"induction of Cfb expression by TNFα ([1]; neonatal cardiomyocytes, TNFα (100 pg/ml) with water-soluble KN-93 (2.5 μM))","induction of Cfb mRNA by LPS ([2]; WT neonatal cardiomyocytes, water-soluble KN-93 (2.5 μM) added an hour prior to LPS 10 μg/ml, RNA after 12 h)"
"AC3-I: CaMKII-inhibitory peptide of SEQ ID NO:16, transgenically expressed in cardiomyocytes (KKALHRQEAVDCL)",significantly lower,strong attenuation of Cfb induction,88 genes,Significantly reduced CFB protein,,
COc1ccc(S(=O)(=O)N(CCO)c2ccccc2CN(C)CC=Cc2ccc(Cl)cc2)cc1 [KN-93],,,,,significantly blunted,significantly (P<0.001) attenuated induction of Cfb mRNA
